Results taken from ChEMBL document CHEMBL5303304, “EUbOPEN Chemogenomics Library - IncuCyte” (2023).

Experiments:
Type in all cases: toxicity, cell-based
[1] = test system: HEK-293T; assay: Incucyte cell viability with HEK293T; conditions: human, 10 µM, compound concentration 10 uM
[2] = test system: U2OS; assay: Incucyte cell viability with U2OS; conditions: human, 10 µM, compound concentration 10 uM
[3] = test system: Fibroblast; assay: Incucyte cell viability with human fibroblast; conditions: 10 µM, compound concentration 10 uM
Also: unitless GR value; below 1 slowed growth and below 0 cell loss.

Compound	Growth Rate ([1]; 0 h, replicate number 1)	Growth Rate ([3]; 0 h, replicate number 2)	Growth Rate ([3]; 6 h, replicate number 1)	Growth Rate ([3]; 6 h, replicate number 2)	Growth Rate ([3]; 12 h, replicate number 1)	Growth Rate ([3]; 18 h, replicate number 1)	Growth Rate ([1]; 6 h, replicate number 1)	Growth Rate ([1]; 6 h, replicate number 2)	Growth Rate ([1]; 18 h, replicate number 1)	Growth Rate ([1]; 18 h, replicate number 2)	Growth Rate ([1]; 24 h, replicate number 1)	Growth Rate ([1]; 24 h, replicate number 2)	Growth Rate ([2]; 6 h, replicate number 1)	Growth Rate ([3]; 0 h, replicate number 1)	Growth Rate ([3]; 12 h, replicate number 2)	Growth Rate ([2]; 12 h, replicate number 1)	Growth Rate ([2]; 18 h, replicate number 1)	Growth Rate ([2]; 18 h, replicate number 2)	Growth Rate ([2]; 24 h, replicate number 1)	Growth Rate ([1]; 12 h, replicate number 2)	other results
COc1cc(O)c(C(CC(=O)N2C[C@H](C)C[C@H](C)C2)c2ccc3c(c2)OCO3)c(OC)c1 (stereo partly specified)	0.81	0.14	-0.32	1	0.5	0.1	–	–	–	–	–	–	–	–	–	–	–	–	–	–	Growth Rate ([1]; 0 h, replicate number 2): -0.14; Growth Rate ([2]; 0 h, replicate number 1): 0.96; Growth Rate ([2]; 0 h, replicate number 2): 0.9; Growth Rate ([3]; 18 h, replicate number 2): 0.88; Growth Rate ([3]; 24 h, replicate number 1): 0.74
CNc1nc(Nc2ccc(C(=O)N3CCOCC3)cc2OC)ncc1Cl	–	–	–	0.67	–	–	0.75	0.81	0.99	0.96	0.92	0.96	-0.99	-0.99	0.72	–	–	–	–	–	Growth Rate ([3]; 18 h, replicate number 2): 0.63; Growth Rate ([3]; 24 h, replicate number 2): 0.99
O=C(Nc1c(-c2cccs2)nc2ccc(Cl)cn12)c1ccc(Cl)cc1	–	–	–	-1	-1	0.47	0.88	–	–	–	–	–	0.3	0.89	–	0.64	0.95	0.75	0.97	–	Growth Rate ([2]; 6 h, replicate number 2): 0.69; Growth Rate ([2]; 12 h, replicate number 2): 0.81; Growth Rate ([2]; 24 h, replicate number 2): 0.56
CC(C)Oc1ccc(Cc2ccc(NC3=NCCN3)cc2)cc1	–	-0.09	-0.34	0	-0.06	0.24	-0.15	-0.39	0.26	0.42	0.37	0.45	0.1	-1	0.88	0.64	0.59	–	0.58	0.14	Growth Rate ([1]; 12 h, replicate number 1): 0.09; Growth Rate ([2]; 0 h, replicate number 1): 0.6; Growth Rate ([3]; 24 h, replicate number 1): 0.26
NCC1CCC(CNc2nc(NCc3ccccc3OC(F)(F)F)ncc2[N+](=O)[O-])CC1 (stereo unspecified)	–	–	0.48	0.74	0.28	-0.03	-0.6	-0.49	-0.04	-0.01	0.09	0.1	0.45	-0.85	0.57	0.44	0.69	0.63	0.84	-0.27	Growth Rate ([1]; 12 h, replicate number 1): -0.36; Growth Rate ([2]; 6 h, replicate number 2): 0.71; Growth Rate ([2]; 12 h, replicate number 2): 0.59; Growth Rate ([2]; 24 h, replicate number 2): 0.59; Growth Rate ([3]; 18 h, replicate number 2): 0.35; Growth Rate ([3]; 24 h, replicate number 1): 0.04; Growth Rate ([3]; 24 h, replicate number 2): 0.35
Cn1c(SCc2ccc(C(C)(C)C)cc2)nc(N)cc1=O	0.71	-1	-0.69	–	–	–	-0.1	-0.24	0.15	0.19	0.2	0.23	0.7	0.97	–	0.86	0.62	0.71	0.78	0.05	Growth Rate ([1]; 12 h, replicate number 1): -0.03; Growth Rate ([2]; 0 h, replicate number 2): -0.65; Growth Rate ([2]; 12 h, replicate number 2): 0.66; Growth Rate ([2]; 24 h, replicate number 2): 0.68
Cc1nnc2ccc(-c3cccc(C(F)(F)F)c3)nn12 [CI-218872]	0.97	–	0.38	-1	-1	–	–	–	–	0.95	–	0.99	0.76	–	0.98	0.88	0.84	0.97	–	0.87	Growth Rate ([1]; 0 h, replicate number 2): 0.45; Growth Rate ([2]; 6 h, replicate number 2): 0.83
